Results on 21 molecules are retold here after the supplement of paper PMC10627819.

Some results are limits rather than exact numbers.

The test system of one assay is S. aureus DSM 20231. In words: Bliss interaction score (quartile over a dose matrix) (fitness difference); higher = more antagonism (negative = synergy). In short, it runs like this:
(§1)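 Growth was read as OD595 when cultures entered stationary phase, and each value was divided by the plate's robust no-drug mean and capped at 1. This normalised ratio is the fitness value, and fitness for each single drug came from the combination data. The Bliss score subtracts the expected fitness, taken as the product, from the observed fitness and is given as quartiles across technical, biological and donor/recipient replicates.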

The subject of another assay is B. subtilis 168. Described as above. In short, it runs like this: as §1
A further assay has as its system S. pneumoniae D39V. The description is as above. In short, it runs like this:
as §1

Assay [1] relates to S. aureus Newman. Described as above. In short, it runs like this:
as §1

Assay [2] relates to S. aureus Newman. Description: fitness (endpoint OD595 vs no drug) (fraction); higher = more growth. Conditions: main component drawn. The method, boiled down:
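Bacterial growth was followed in 384-well plates seeded at OD595 0.01, with 30 µl per well, or 55 µl for S. pneumoniae, in TSB, LB Lennox or CY at 37 °C. OD595 was read every 30 min for 14 h, and each reading had the first reading subtracted as background. Fitness is the background-corrected optical density at entry into stationary phase divided by the robust mean of the no-drug control wells. This ratio is capped at 1.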
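Throughout, for Bliss interaction score (quartile over a dose matrix): first quartile when negative (synergy) and third quartile when positive (antagonism).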

`O=C1CN(/N=C/c2ccc([N+](=O)[O-])o2)C(=O)N1` [Nitrofurantoin] + CCCc1nc2c(C)cc(-c3nc4ccccc4n3C)cc2n1Cc1ccc(-c2ccccc2C(=O)O)cc1 [Telmisartan]: in the assay with S. aureus DSM 20231, the Bliss interaction score is -0.216.
With `O=C(O[C@@H]1Cc2c(O)cc(O)cc2O[C@@H]1c1cc(O)c(O)c(O)c1)c1cc(O)c(O)c(O)c1` [EGCG] + CN1CCC[C@H]1c1cccnc1 [Nicotine], the Bliss interaction score in the assay on S. aureus DSM 20231 was -0.157.
For `CCC[C@@H]1C[C@@H](C(=O)N[C@@H]([C@H]2O[C@H](SC)[C@H](O)[C@@H](O)[C@H]2O)[C@H](C)Cl)N(C)C1` [Clindamycin] + O=C(O)Cc1cc(I)c(Oc2ccc(O)c(I)c2)c(I)c1 [Tiratricol], in the assay on S. aureus DSM 20231, the Bliss interaction score was 0.278.
Turning to `CC(=O)O[C@H]1C[C@@]2(C)[C@@H](C[C@@H](O)[C@H]3[C@@]4(C)CC[C@@H](O)[C@@H](C)[C@@H]4CC[C@@]32C)/C1=C(\CCC=C(C)C)C(=O)O` [Fusidic acid] + Cc1c(Cl)cccc1Nc1ccccc1C(=O)O [Tolfenamic], the Bliss interaction score with S. aureus DSM 20231 amounted to 0.16.
For the molecule `CCC[C@@H]1C[C@@H](C(=O)N[C@@H]([C@H]2O[C@H](SC)[C@H](O)[C@@H](O)[C@H]2O)[C@@H](C)O)N(C)C1` [Lincomycin] + C[C@H]1C[C@@H]2[C@H]([C@@H](O)C[C@@]3(C)[C@H]2CC[C@]3(O)C(=O)CO)[C@@]2(C)C=CC(=O)C=C12 [Methylprednisolone], the Bliss interaction score in the assay on S. aureus DSM 20231 is -0.248.
Turning to `O=C(N[C@H](CO)[C@H](O)c1ccc([N+](=O)[O-])cc1)C(Cl)Cl` [Chloramphenicol] + C[C@H]1COc2c(N3CCN(C)CC3)c(F)cc3c(=O)c(C(=O)O)cn1c23 [Levofloxacin], the Bliss interaction score with B. subtilis 168 turned out to be 0.0387; in the assay with S. pneumoniae D39V, 0.0655; with S. aureus DSM 20231, 0.0741.
Take `O=C(N[C@H](CO)[C@H](O)c1ccc([N+](=O)[O-])cc1)C(Cl)Cl` [Chloramphenicol] + CCCSc1nc(N[C@@H]2C[C@H]2c2ccc(F)c(F)c2)c2nnn([C@@H]3C[C@H](OCCO)[C@@H](O)[C@H]3O)c2n1 [Ticagrelor]: the Bliss interaction score with S. aureus DSM 20231 is -0.239.
As to `O=C(N[C@H](CO)[C@H](O)c1ccc([N+](=O)[O-])cc1)C(Cl)Cl` [Chloramphenicol] + O=C1CN(/N=C/c2ccc([N+](=O)[O-])o2)C(=O)N1 [Nitrofurantoin], the Bliss interaction score with S. pneumoniae D39V was -0.157; with S. aureus Newman [1] it was -0.0842; in the assay on S. aureus DSM 20231 it was -0.0404.
Turning to `CCC[C@@H]1C[C@@H](C(=O)N[C@@H]([C@H]2O[C@H](SC)[C@H](O)[C@@H](O)[C@H]2O)[C@@H](C)O)N(C)C1` [Lincomycin] + CCCSc1nc(N[C@@H]2C[C@H]2c2ccc(F)c(F)c2)c2nnn([C@@H]3C[C@H](OCCO)[C@@H](O)[C@H]3O)c2n1 [Ticagrelor], the Bliss interaction score with S. aureus DSM 20231 is -0.385.
For the molecule `CCC[C@@H]1C[C@@H](C(=O)N[C@@H]([C@H]2O[C@H](SC)[C@H](O)[C@@H](O)[C@H]2O)[C@@H](C)O)N(C)C1` [Lincomycin] + Cc1c(C)c2c(c(C)c1O)CCC(C)(COc1ccc(CC3SC(=O)NC3=O)cc1)O2 [Troglitazone], the Bliss interaction score in the assay with S. aureus DSM 20231 came to 0.222.
On to `C/C(=C\C(=O)OCCCCCCCCC(=O)O)C[C@@H]1OC[C@H](C[C@@H]2O[C@H]2[C@@H](C)[C@H](C)O)[C@@H](O)[C@H]1O` [Pseudomonic acid] + CCCSc1nc(N[C@@H]2C[C@H]2c2ccc(F)c(F)c2)c2nnn([C@@H]3C[C@H](OCCO)[C@@H](O)[C@H]3O)c2n1 [Ticagrelor], for which, in the assay with S. aureus DSM 20231, the Bliss interaction score worked out at 0.241.
For `O=C(N[C@H](CO)[C@H](O)c1ccc([N+](=O)[O-])cc1)C(Cl)Cl` [Chloramphenicol] + CO[C@H]1/C=C/O[C@@]2(C)Oc3c(C)c(O)c4c(O)c(c(/C=N/N5CCN(C)CC5)c(O)c4c3C2=O)NC(=O)/C(C)=C\C=C\[C@H](C)[C@H](O)[C@@H](C)[C@@H](O)[C@@H](C)[C@H](OC(C)=O)[C@@H]1C [Rifampicin], the Bliss interaction score in the assay on S. pneumoniae D39V worked out at 0.069; in the assay on S. aureus Newman [1], 0.0185; with S. aureus DSM 20231 it was 0.0582.
As for `CC(=O)OC[C@H]1O[C@@H]([S-])[C@H](OC(C)=O)[C@@H](OC(C)=O)[C@@H]1OC(C)=O.CCP(CC)CC.[Au+]` [Auranofin] + CC(=O)Oc1cccc2c1C(=O)c1c(OC(C)=O)cc(C(=O)O)cc1C2=O [Diacerein], the Bliss interaction score with S. aureus DSM 20231 is -0.466.
Take `CCN(CC)CCOc1ccc(C(=C(Cl)c2ccccc2)c2ccccc2)cc1` [Clomiphene] + Cn1nnc(-c2ccc(-c3ccc(N4C[C@H](CO)OC4=O)cc3F)cn2)n1 [Tedizolid]: the Bliss interaction score in the assay with S. aureus DSM 20231 came out at 0.263.
As to `COc1c(N2C[C@@H]3CCCN[C@@H]3C2)c(F)cc2c(=O)c(C(=O)O)cn(C3CC3)c12` [Moxifloxacin] + Cc1c(Cl)cccc1Nc1ccccc1C(=O)O [Tolfenamic], the Bliss interaction score in the assay with S. aureus DSM 20231 was -0.12.
Take `O=C(N[C@H](CO)[C@H](O)c1ccc([N+](=O)[O-])cc1)C(Cl)Cl` [Chloramphenicol] + CC(C1CCC(C(O1)OC2C(CC(C(C2O)OC3C(C(C(CO3)(C)O)NC)O)N)N)N)NC [Gentamicin]: the fitness in the assay with S. aureus Newman [2] (first compound 0.75 µg/mL, partner 0.375 µg/mL) was 0.778; with S. aureus Newman [2] (first compound 0.75 µg/mL, partner 0.5 µg/mL), 0.868; in the assay on S. aureus Newman [2] (first compound 0.75 µg/mL, partner 0.75 µg/mL), 0.778; with S. aureus Newman [2] (first compound 0.75 µg/mL, partner 1 µg/mL), 0.974; in the assay with S. aureus Newman [2] (first compound 0.75 µg/mL, partner 1.5 µg/mL), 0.765; with S. aureus Newman [2] (first compound 0.75 µg/mL, partner 2 µg/mL) it was no less than 1. The fitness in the assay with S. aureus Newman [2] (first compound 1.5 µg/mL, partner 0.375 µg/mL) was 0.507; in the assay on S. aureus Newman [2] (first compound 1.5 µg/mL, partner 0.5 µg/mL) it was 0.775; with S. aureus Newman [2] (first compound 1.5 µg/mL, partner 0.75 µg/mL), 0.543; in the assay with S. aureus Newman [2] (first compound 1.5 µg/mL, partner 1 µg/mL), 0.893; with S. aureus Newman [2] (first compound 1.5 µg/mL, partner 1.5 µg/mL) it was 0.561; in the assay on S. aureus Newman [2] (first compound 1.5 µg/mL, partner 2 µg/mL), 0.871. Moreover, the fitness with S. aureus Newman [2] (first compound 3 µg/mL, partner 0.375 µg/mL) amounted to 0.208; with S. aureus Newman [2] (first compound 3 µg/mL, partner 0.5 µg/mL) it was 0.436; in the assay with S. aureus Newman [2] (first compound 3 µg/mL, partner 0.75 µg/mL), 0.223; with S. aureus Newman [2] (first compound 3 µg/mL, partner 1 µg/mL) it was 0.487; with S. aureus Newman [2] (first compound 3 µg/mL, partner 1.5 µg/mL), 0.231; in the assay on S. aureus Newman [2] (first compound 3 µg/mL, partner 2 µg/mL) it was 0.512. In addition, the Bliss interaction score with B. subtilis 168 (main component drawn) was 0.13; in the assay with S. pneumoniae D39V (main component drawn), -0.162; in the assay with S. aureus DSM 20231 (main component drawn) it was 0.0877.
On to `CC(=O)OC[C@H]1O[C@@H]([S-])[C@H](OC(C)=O)[C@@H](OC(C)=O)[C@@H]1OC(C)=O.CCP(CC)CC.[Au+]` [Auranofin] + C[C@H]1C[C@@H]2[C@H]([C@@H](O)C[C@@]3(C)[C@H]2CC[C@]3(O)C(=O)CO)[C@@]2(C)C=CC(=O)C=C12 [Methylprednisolone], for which, in the assay with S. aureus DSM 20231, the Bliss interaction score was determined as 0.162.
Take `CC[C@H]1OC(=O)[C@H](C)[C@@H](O[C@H]2C[C@@](C)(OC)[C@@H](O)[C@H](C)O2)[C@H](C)[C@@H](O[C@@H]2O[C@H](C)C[C@H](N(C)C)[C@H]2O)[C@](C)(OC)C[C@@H](C)C(=O)[C@H](C)[C@@H](O)[C@]1(C)O` [Clarithromycin] + O=C(O)Cc1cc(I)c(Oc2ccc(O)c(I)c2)c(I)c1 [Tiratricol]: the Bliss interaction score with S. aureus DSM 20231 was found to be 0.192.
As for `CCC[C@@H]1C[C@@H](C(=O)N[C@@H]([C@H]2O[C@H](SC)[C@H](O)[C@@H](O)[C@H]2O)[C@@H](C)O)N(C)C1` [Lincomycin] + O=C(O)Cc1cc(I)c(Oc2ccc(O)c(I)c2)c(I)c1 [Tiratricol], in the assay with S. aureus DSM 20231, the Bliss interaction score came out at 0.233.
As to `CCC[C@@H]1C[C@@H](C(=O)N[C@@H]([C@H]2O[C@H](SC)[C@H](O)[C@@H](O)[C@H]2O)[C@H](C)Cl)N(C)C1` [Clindamycin] + C[C@H]1C[C@@H]2[C@H]([C@@H](O)C[C@@]3(C)[C@H]2CC[C@]3(O)C(=O)CO)[C@@]2(C)C=CC(=O)C=C12 [Methylprednisolone], in the assay on S. aureus DSM 20231, the Bliss interaction score is -0.274.
For the molecule `CCC[C@@H]1C[C@@H](C(=O)N[C@@H]([C@H]2O[C@H](SC)[C@H](O)[C@@H](O)[C@H]2O)[C@H](C)Cl)N(C)C1` [Clindamycin] + Cc1ccc(C(C)C)c(O)c1 [Thymol], the Bliss interaction score in the assay on S. aureus DSM 20231 is -0.271.
